From patent publication US20030049317A1, “Method and composition for reducing the danger and preventing the abuse of controlled release pharmaceutical formulations” (priority 2001, published 2003)
Like-named read-outs stand apart in the source and are kept apart here.

Experiments:
[1] = system: morphine-like opioid agonist effects; details: cited from earlier work; for action of the naloxone amount in Talwin Nx: naloxone hydrochloride equivalent to 0.5 mg base
[2] = assay type: in vivo; details: in comparison to a 15 mg dose of hydrocodone

Question: What does the source list for `C=CCN1CC[C@]23c4c5ccc(O)c4O[C@H]2C(=O)CC[C@@]3(O)[C@H]1C5` [naloxone]?
Answer: onset of effects ([1]; after intravenous administration): almost immediately; action of the naloxone amount in Talwin Nx ([1]; given by injection): profound antagonistic action to narcotic analgesics; action of the naloxone amount in Talwin Nx ([1]; taken orally): no action when taken orally; block of heroin effects ([1]; one mg intravenously versus 25 mg of heroin): completely block the effects of 25 mg of heroin; effect on morphine-like opioid agonist effects ([1]; small doses (0.4-0.8 mg) intramuscularly or intravenously in humans): prevents or promptly reverses the effects of morphine-like opioid agonist

Question: For `COc1ccc2c3c1O[C@H]1C(=O)CC[C@H]4[C@@H](C2)N(C)CC[C@]314` [Hydrocodone], which “Equianalgesic dose, Calculated Dose” value [2] is on record?
Answer: 15.0 mg
